Results taken from PMC9987361, “Interaction of hemorphins with ACE homologs” (Scientific Reports, 2023).
Read-outs that look alike come from different tables or passages of the source. No end group written: not given here.

Legend:
ACE1 = target: T1, ACE1 (Homo sapiens, UniProt P12821); assay: In vitro ACE1 inhibition assay (colorimetric ACE1 Kit-WST, absorbance 450 nm); type: biochemical
T1 construct: purchased Dojindo Laboratories
Description: ACE1 inhibition was measured using the absorbance-based colorimetric ACE1 Kit-WST (Dojindo Laboratories, Mashiki-machi, Japan) according to the kit instructions. […] The 18 peptides (Table 2) were initially screened in a single run at concentrations of 0, 10, 50, 100, 200, and 500 µM. […] In a 96-well microplate, 20 µL of each hemorphin concentration was pipetted into each well. In addition, 20 µL and 40 µL of deionized water were pipetted into blank 1 and blank 2 wells, respectively, and 20 µL of substrate buffer and 20 µL of enzyme working solution were pipetted into each sample well and blank 1 well.
The microplate was incubated at 37 °C for 1 h. After incubation, 200 µL of indicator working solution was pipetted to each well and then incubated for 5 min at room temperature.
The absorbance was then measured at 450 nm using a Glomax Discover Microplate Reader (Promega, Madison, WI, USA). ACE1 inhibition was measured using the equation given below: Inhibitionrate%=Blank1-Sample/Blank1-Blank2×100 where Blank1 (without a sample but with enzyme working solution) and Blank2 (without a sample and no enzyme working solution) are 20 µL and 40 µL deionized water, respectively.
The half-maximal inhibitory concentration (IC50) was determined using GraphPad Prism version 9 (GraphPad, San Diego, CA) from a nonlinear regression inhibition plot against the peptide concentration.

ACE2 = test system: ACE2; design: method as in printed at the sentence; conditions: clinically used ACE1 inhibitors; background statement, ref not given; cited from earlier work
[1] = Dissolution of purchased peptides during sample preparation; type: physicochemical; conditions: sample preparation for ACE1 screening
Description: All the purchased peptides were screened in an initial run at 0, 10, 50, 100, 200, and 500 µM.

[2] = IC50 (μM) ± SD against ACE1, mean ± SD of three independent experiments (triplicate runs)
[3] = IC50 values of initial single-run peptide screening, single run at 0, 10, 50, 100, 200 and 500 µM, unit not given for IC50

T1 sequence (P12821 30-1306): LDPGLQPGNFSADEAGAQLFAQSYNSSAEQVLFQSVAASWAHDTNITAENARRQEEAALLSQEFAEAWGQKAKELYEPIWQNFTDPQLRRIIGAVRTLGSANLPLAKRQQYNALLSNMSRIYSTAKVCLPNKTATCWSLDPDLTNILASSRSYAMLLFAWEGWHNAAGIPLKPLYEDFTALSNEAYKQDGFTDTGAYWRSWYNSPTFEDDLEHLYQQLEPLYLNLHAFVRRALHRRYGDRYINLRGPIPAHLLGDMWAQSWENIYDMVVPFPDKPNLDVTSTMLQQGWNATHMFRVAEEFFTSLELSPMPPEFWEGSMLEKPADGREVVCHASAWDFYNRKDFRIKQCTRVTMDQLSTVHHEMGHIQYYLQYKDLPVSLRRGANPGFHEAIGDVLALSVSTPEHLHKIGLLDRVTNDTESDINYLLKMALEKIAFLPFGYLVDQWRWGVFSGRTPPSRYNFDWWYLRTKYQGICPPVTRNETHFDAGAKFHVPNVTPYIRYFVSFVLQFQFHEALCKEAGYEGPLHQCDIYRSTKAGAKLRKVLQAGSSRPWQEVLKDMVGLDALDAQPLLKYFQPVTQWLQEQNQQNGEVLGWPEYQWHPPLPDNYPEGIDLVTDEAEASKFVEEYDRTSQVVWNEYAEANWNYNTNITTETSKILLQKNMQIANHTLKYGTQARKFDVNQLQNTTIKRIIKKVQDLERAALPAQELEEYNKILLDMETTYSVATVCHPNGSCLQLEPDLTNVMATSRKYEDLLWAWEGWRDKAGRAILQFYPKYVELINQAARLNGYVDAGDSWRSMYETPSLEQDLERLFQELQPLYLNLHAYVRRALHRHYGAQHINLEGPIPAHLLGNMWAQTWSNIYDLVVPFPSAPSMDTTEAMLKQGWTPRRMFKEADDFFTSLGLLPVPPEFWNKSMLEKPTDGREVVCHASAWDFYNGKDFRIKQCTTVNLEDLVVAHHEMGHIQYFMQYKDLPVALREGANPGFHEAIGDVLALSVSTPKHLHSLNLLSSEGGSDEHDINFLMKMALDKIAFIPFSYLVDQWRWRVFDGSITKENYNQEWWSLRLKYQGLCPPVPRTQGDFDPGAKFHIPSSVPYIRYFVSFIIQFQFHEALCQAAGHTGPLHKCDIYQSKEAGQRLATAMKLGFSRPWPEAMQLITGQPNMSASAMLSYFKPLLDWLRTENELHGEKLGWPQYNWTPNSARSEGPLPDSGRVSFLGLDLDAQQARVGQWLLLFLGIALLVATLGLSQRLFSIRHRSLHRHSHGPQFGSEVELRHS

| Compound | IC50 (ACE1; [2]) [µM] | IC50 (ACE1; [3]) [µM] | further results |
| --- | --- | --- | --- |
| CC(C)C[C@H](N)C(=O)N[C@H](C(=O)N[C@H](C(=O)N[C@@H](Cc1ccc(O)cc1)C(=O)N1CCC[C@H]1C(=O)N[C@@H](Cc1c[nH]c2ccccc12)C(=O)N[C@H](C(=O)N[C@@H](CCCNC(=N)N)C(=O)N[C@@H](CCCNC(=N)N)C(=O)N[C@@H](Cc1ccccc1)C(=O)O)[C@@H](C)O)C(C)C)C(C)C [Camel LVVHem7] | 11.1 ± 2.18 | 25.8 | – |
| CC(C)C[C@H](N)C(=O)N[C@H](C(=O)N[C@H](C(=O)N[C@@H](Cc1ccc(O)cc1)C(=O)N1CCC[C@H]1C(=O)N[C@@H](Cc1c[nH]c2ccccc12)C(=O)N[C@H](C(=O)N[C@@H](CCC(N)=O)C(=O)N[C@@H](CCCNC(=N)N)C(=O)N[C@@H](Cc1ccccc1)C(=O)O)[C@@H](C)O)C(C)C)C(C)C [LVVHem7] | 13.1 ± 2.87 | 29.3 | – |
| C[C@H](CS)C(=O)N1CCC[C@H]1C(=O)O [captopril] | – | – | Activity against ACE2 (ACE2): inactivity |
| NCCCC[C@H](N[C@@H](CCc1ccccc1)C(=O)O)C(=O)N1CCC[C@H]1C(=O)O [lisinopril] | – | – | Activity against ACE2 (ACE2): inactivity |
| LVVYPWTQ [LVVHem5] | 20.1 ± 1.33 | 36.7 | – |
| LVVYPWTQR [LVVHem6] | 6.45 | 14.9 | – |
| LVVYPWTR [Camel LVVHem5] | 6.88 ± 1.89 | 21.2 | – |
| LVVYPWTRR [Camel LVVHem6] | 5.12 ± 0.7 | 25.9 | – |
| Tyr-Pro-Trp-Thr [Hem4] | – | – | IC50 values of initial single-run peptide screening (ACE1; single run at 0, 10, 50, 100, 200 and 500 µM, unit not given for IC50): No IC50 |
| Tyr-Pro-Trp-Thr-Gln (YPWTQ; printed: Tyr-Pro-Trp-Thr-Gln) [Hem5] | – | – | Dissolution during sample preparation [1]: did not dissolve |
| VVYPWTQR [VVHem6] | 12.7 | 30.3 | – |
| VVYPWTRR [Camel VVHem6] | – | 44.1 | – |
| VVYPWTRRF [Camel VVHem7] | – | 51.4 | – |
| YPWTQR [Hem6, Tyr-Pro-Trp-Thr-Gln-Arg] | – | 80.2 | – |
| YPWTQRF [Hem7, Tyr-Pro-Trp-Thr-Gln-Arg-Phe] | – | 95.1 | – |
| YPWTR [Camel Hem5, Tyr-Pro-Trp-Thr-Arg] | – | – | IC50 (ACE1): 78.8 µM |
| YPWTRR [Camel Hem6] | – | – | Dissolution during sample preparation [1]: did not dissolve |
| YPWTRRF [Camel Hem7, Tyr-Pro-Trp-Thr-Arg-Arg-Phe] | 23.6 ± 3.7 | 44.1 | – |
